This is an account of results in publication PMC6179059, “Pharmacophore-based discovery of 2-(phenylamino)aceto-hydrazides as potent eosinophil peroxidase (EPO) inhibitors” (Journal of Enzyme Inhibition and Medicinal Chemistry, 2018).

Read-outs that look alike come from different tables or passages of the source.

Test [1] concerns the target T1, eosinophil peroxidase (EPO) (Homo sapiens, UniProt P11678).
T1 construct: Eosinophil peroxidase was purified from human white blood cells to a purity index (A413/A280) of at least 1.0; from tissue; host or cells: human white blood cells
Briefly: Inhibition of EPO-mediated bromination, monochlorodimedone (MCD) assay. The format is biochemical. The protocol:
Eosinophil peroxidase was purified from human white blood cells to a purity index (A413/A280) of at least 1.0 as described by Olsen and Little[27]. Its concentration was calculated using ε413 nm 110 000 M^−1 cm−1[28] Hydrogen peroxide, obtained as a 30% solution from Sigma Chemical Co., was diluted and the concentration determined by the absorbance measurement at 240 nm where the extinction coefficient is 39.4 M^−1 cm−1[29]. The other chemicals were also purchased from Sigma Chemical Co. at the highest grade available.
Halogenation activity was measured spectrophotometrically (Hitachi U-3000) using the monochlorodimedone (MCD) assay. MCD (100 µM) was dissolved in 100 mM phosphate buffer, pH 7.0 containing either bromide (100 mM) or chloride (100 mM) and 20 nM EPO. Upon addition of 100 µM H2O2 MCD was converted into dibromodimedone. […] If necessary the inhibitor stock solutions were prepared in dimethylsulfoxide (DMSO) and stored in dark flasks. Dilution was performed with 100 mM phosphate buffer, pH 7.0, to a final DMSO concentration of maximal 2% (v/v) in all assays. […] The inhibitor concentration that inhibited eosinophil peroxidase-dependent oxidation of MCD by 50% (IC50) was determined by fitting a rectangular hyperbola to the dose-response curve using nonlinear regression (see supplemental information A). All measurements were made in triplicate.
The 277 selected compounds were tested for inhibition. Monochlorodimedon (MCD) was used to monitor inhibition of EPO-mediated bromination. It turned out that certain compounds such as hydrazides are able to inhibit the EPO. Table 3 lists the IC50 values of four different 4-chlorophenyl derivatives of hydrazides and acetic acid. […] It is apparent that a free terminal amino group, which could act as an […] is essential for a strong inhibition, additional to steric and/or electrochemical properties of these compounds.
Supplementary Figure S1: IC 50 plots of inhibition of EPO halogenation activity. Figure A- […]
20 nM EPO and 200 µM hydrogen peroxide. Reactions were carried out in 100 mM phosphate buffer, pH 7, at 25 °C, Data are means of triplicate experiments. The inhibitory effect of each inhibitor was measured by determining the concentration at which it inhibited oxidation of MCD by 50% (IC50).

Test [2] concerns dextran sulfate-induced model of ulcerative colitis. Also on record: method as in PMID 15100311. The settings on record: wild-type mice; cited from earlier work.
For another test, the system named is T2, EPO Compound I.
T2 construct: Eosinophil peroxidase was purified from human white blood cells to a purity index (A413/A280) of at least 1.0; from tissue; host or cells: human white blood cells
The experiment in a line: Sequential-mixing stopped-flow: reaction of EPO Compound I with inhibitors. The format is biochemical, human. Particulars: for apparent second-order rate constant for Compound I reduction (k3): 100 mM phosphate buffer, pH 7.0, 25 °C; for type of inhibition (reversible / irreversible): concluded from pre-steady-state kinetics. The protocol: (§1) The sequential stopped-flow apparatus (model SX-18 MV) and the associated computer system were from Applied Photophysics (UK). Because of the inherent instability of Compound I of EPO, the sequential stopped-flow (multi-mixing) technique was used for determination of rate of the reaction of Compound I with different inhibitors. Similar to bovine LPO, human EPO Compound I could be formed with equimolar concentrations of H2O2. In a typical experiment, 2 µM EPO was premixed with 2 µM H2O2 in the aging loop. After 100 ms of delay, the formed Compound I was mixed with increasing concentrations of different inhibitors. Formation and reduction of Compound II by compound 10 was investigated by following the biphasic time trace at 423 nm, where the transition of Compound I to Compound II and further to the […] can be followed. The kinetic traces were fitted using the double-exponential equation of the Applied Photophysics software. At least three determinations (2000 data points) of pseudo-first-order rate constants (kobs) from the first phase of the reaction were performed for each substrate concentration and the mean value was used in the calculation of the second-order rate constants, which were calculated from the slope of the line defined by a plot of kobs versus substrate concentration. Compound 11 was investigated by following the biphasic time traces at 430 nm the maximum absorbance of Compound II. All reactions were followed both at single wavelengths as well as with a diode-array detector. Polychromatic data were analysed with Pro-Kineticist from Applied Photophysics. The program simultaneously fits the kinetic traces at all wavelengths to the proposed reaction mechanism and simulates the spectra of all reactant, product and intermediate species as well as their time-dependent distribution on the reaction coordinate. All measurements were done in 100 mM phosphate buffer, pH 7.0, at 25 °C with a minimum of three repeats.
In order to determine the mechanism of inhibition of EPO with aceto-hydrazide, acetic acid and thioacetic acid derivatives, a pre-steady-state kinetic study was performed with sequential-mixing stopped-flow spectroscopy. Three redox intermediates are relevant in the enzymology of EPO, namely Compound I, Compound II and Compound III (Figure 3). […] Alternatively, Compound I can also be reduced back by two one-electron reduction steps via Compound II (k3 and k4), Figure 3). The ferric enzyme can be reduced to ferrous enzyme (k5). Compound III can be formed either from ferric enzyme by reversible binding of superoxide (O2^–) (k6) or from the ferrous enzyme by reversible binding of dioxygen (O2) (k7). […]
(§2) Firstly we investigated compound 10. […] Compound I reduction with compound 10 was measured at 423 nm. […]

In another test the test system is T3, EPO Compound II.
T3 construct: Eosinophil peroxidase was purified from human white blood cells to a purity index (A413/A280) of at least 1.0; from tissue; host or cells: human white blood cells
The experiment in a line: Sequential-mixing stopped-flow: reaction/transition of EPO Compound II with inhibitors. The format is biochemical, human. Particulars: pH 7.0, 25 °C; for apparent second-order rate constant for Compound II reduction (k4): 100 mM phosphate buffer. The method, then:
as §1, with “repeats. […]” for “repeats.”
as §2

[3] abbreviates: Table 4, 20 nM EPO, 100 mM bromide, 100 µM H2O2, pH 7.0, read-out: IC50 value.
The mark [4] stands for this setting: as stated in text (abstract, conclusion), read-out: IC50.
[5] abbreviates: training and test set compounds of the pharmacophore model, read-out: EPO IC50.
The mark [6] stands for this setting: Table 3, 20 nM EPO, 100 mM bromide, 100 µM H2O2, pH 7.0, read-out: IC50 value.

T1 sequence (P11678 251-715 limits assumed): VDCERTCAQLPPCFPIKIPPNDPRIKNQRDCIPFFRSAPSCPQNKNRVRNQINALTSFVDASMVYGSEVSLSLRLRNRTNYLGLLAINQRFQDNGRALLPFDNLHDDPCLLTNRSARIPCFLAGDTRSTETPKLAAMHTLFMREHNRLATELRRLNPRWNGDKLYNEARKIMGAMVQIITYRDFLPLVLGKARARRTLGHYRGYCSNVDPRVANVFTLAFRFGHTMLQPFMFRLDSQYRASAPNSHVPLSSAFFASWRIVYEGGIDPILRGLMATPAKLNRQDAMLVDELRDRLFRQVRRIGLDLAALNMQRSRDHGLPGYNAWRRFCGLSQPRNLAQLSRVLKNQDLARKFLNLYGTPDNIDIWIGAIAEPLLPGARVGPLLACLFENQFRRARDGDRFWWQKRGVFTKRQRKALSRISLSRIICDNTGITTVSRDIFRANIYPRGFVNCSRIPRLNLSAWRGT
T1 sequence (P11678 140-250 limits assumed): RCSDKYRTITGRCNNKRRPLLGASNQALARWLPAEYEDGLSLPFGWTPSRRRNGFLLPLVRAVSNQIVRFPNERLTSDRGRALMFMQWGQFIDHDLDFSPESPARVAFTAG

A word on the IC50: it is the concentration that inhibits the measured activity by half. On to `Cc1ccc(NCC(=O)NN)cc1` [Compound 15, 4-Methyl-PAAH], for which, in test [1] (setting [3]), the IC50 is 2270 ± 90 nM.

With `NNC(=O)CNc1ccc(F)cc1F` [Compound 20, 2,4-di Fluoro-PAAH], the IC50 in test [1] (setting [3]) came out at 20 ± 6 nM.

As for `Oc1cccc(O)c1` [resorcinol], the “disease activity parameters (weight loss, colon shrinkage, colonic bleeding)” value in test [2] is on record as “diminished”.

As to `NNC(=O)CNc1ccccc1F` [Compound 19, 2-[(2-fluorophenyl)amino]-aceto-hydrazide], the IC50 was determined as 10 ± 5 nM in test [1] (setting [3]) and 10 nM in test [1] (setting [4]).

For the compound `NNC(=O)CNc1ccc(Br)cc1` [Compound 17, 4-Bromo-PAAH], the IC50 in test [1] (setting [3]) was determined as 823 ± 80 nM.

As to `NNC(=O)CNc1cccc(Br)c1` [Compound 23, 3-Bromo-PAAH], the IC50 in test [1] (setting [3]) came to 823 ± 60 nM.

On to `NNc1cc(Cl)ccc1[N+](=O)[O-]` [Compound 5, reference compound], for which the IC50 in test [1] (setting [5]) was 770 nM.

`NNC(=O)CNc1ccccc1` [Compound 14, PAAH]: in test [1] (setting [3]), the IC50 amounted to 2900 ± 100 nM.

On to `NNC(=O)CNc1ccccc1Cl` [Compound 22, 2-Chloro-PAAH], for which, in test [1] (setting [3]), the IC50 came out at 910 ± 40 nM.

As to `NNC(=O)CNc1ccc(Cl)cc1` [Compound 10, 2-[(4-chlorophenyl)amino]-acetohydrazide], in the test with EPO Compound I, the “apparent second-order rate constant for Compound I reduction (k3)” value was 9.2e+06 M⁻¹ s⁻¹ and the “type of inhibition (reversible / irreversible)” value is on record as “irreversible inhibitor”. Besides, the IC50 in test [1] (setting [4]) was determined as 21 nM. For the same compound, the “rate constant for transition Compound II - Compound III” value with EPO Compound II (independent of inhibitor concentration) is ~1.2 s⁻¹.

With `Cn1c(=O)[nH]c(=O)c2c1nc(NCCCO)n2CCO` [Compound 2, reference compound], the IC50 in test [1] (setting [5]) was 120 nM.

As to `NNC(=O)CNc1ccc(I)cc1` [Compound 18, 4-Iodo-PAAH], the IC50 in test [1] (setting [3]) worked out at 290 ± 20 nM.

Take `NNC(=O)CSc1ccc(Cl)cc1` [Compound 12, 2-(4-chlorophenyl) thio-acetohydrazide]: the “apparent second-order rate constant for Compound II reduction (k4)” value with EPO Compound II was 140000 M⁻¹ s⁻¹.

In the case of `NNC(=O)c1ccc(O)cc1O` [Compound 9, reference compound], in test [1] (setting [5]), the IC50 stood at 3520 nM.

In the case of `NNC(=O)COc1ccc(Cl)cc1` [Compound 13, 2-(4-chlorophenoxy)-aceto-hydrazide], the IC50 in test [1] (setting [6]) came to 4900 ± 100 nM.

Regarding `NNC(=O)c1nn(-c2ccccc2)cc1O` [Compound 4, reference compound], the IC50 in test [1] (setting [5]) worked out at 420 nM.

`NNC(=O)CNc1ccc(F)c(Cl)c1` [Compound 21, 3-Chloro-4-fluoro-PAAH]: the IC50 in test [1] (setting [3]) amounted to 34 ± 5 nM.

Consider `CC/N=c1/scc(-c2ccc(O)c(C(N)=O)c2)n1CC` [Compound 6, reference compound], for which, in test [1] (setting [5]), the IC50 was determined as 980 nM.

Regarding `NNC(=O)CNc1ccc(F)cc1` [Compound 16, 4-Fluoro-PAAH], the IC50 in test [1] (setting [3]) stood at 172 ± 30 nM.

Turning to `COc1ccc2[nH]cc(CCNC(C)=O)c2c1` [Compound 8, reference compound], the IC50 in test [1] (setting [5]) turned out to be 2900 nM.

With `C=CCNc1nc2c(c(=O)[nH]c(=O)n2C)n1CC(O)CO` (stereo not shown) [Compound 7, reference compound], the IC50 in test [1] (setting [5]) is 1050 nM.

As for `NNC(=O)c1ccccc1O` [Compound 3, reference compound], in test [1] (setting [5]), the IC50 was 75 nM.

In the case of `NNC(=O)c1nn(-c2ccccc2C(F)(F)F)cc1O` [Compound 1, reference compound], in test [1] (setting [5]), the IC50 is 50 nM.

As to `O=C(O)CNc1ccc(Cl)cc1` [Compound 11, 2-[(4-chlorophenyl)amino]-acetic acid], in the test with EPO Compound I, the “apparent second-order rate constant for Compound I reduction (k3)” value was 6.9e+06 M⁻¹ s⁻¹ and the “type of inhibition (reversible / irreversible)” value is recorded as “reversible inhibitor”. For the same compound, in test [1] (setting [6]), the IC50 turned out to be 205 ± 30 nM. In addition, in the test on EPO Compound II, the “apparent second-order rate constant for Compound II reduction (k4)” value was found to be 11000 M⁻¹ s⁻¹.
